# Source: ChEMBL document CHEMBL3120068, “Identification of diverse natural products as falcipain-2 inhibitors through structure-based virtual screening” (Bioorg Med Chem Lett, 2014)
# Assays:
# Plasmodium falciparum [1] = experiment: Antiplasmodial activity against chloroquine-resistant blood stage Plasmodium falciparum Dd2 after 72 hrs by SYBR Green I-based fluorescence assay; format: functional, organism-based; settings: Dd2, 72 h
# Plasmodium falciparum [2] = experiment: Antiplasmodial activity against chloroquine-sensitive blood stage Plasmodium falciparum 3D7 after 72 hrs by SYBR Green I-based fluorescence assay; format: functional, organism-based; settings: 3D7, 72 h
# [3] = Inhibition of recombinant Plasmodium falciparum falcipain 2 after 30 mins by fluorescence assay
Compound,IC50 (Plasmodium falciparum [1]),IC50 (Plasmodium falciparum [2]),IC50 [3]
O=C1c2c(O)cc(O)cc2O[C@H](c2cc(O)c(O)c(O)c2)[C@@H]1O,> 50 µM,75.5 µM,44.8 µM
O=C1c2c(O)cc(O)cc2O[C@@]2(c3ccc(O)cc3)Oc3cc(O)c4c(c3[C@]12O)O[C@H](c1ccc(O)cc1)CC4,66.7 µM,60.6 µM,5.23 µM
C[C@@H]1CC[C@H]2[C@@H](C)C(=O)O[C@@H]3O[C@@]4(C)CC[C@@H]1[C@]32OO4 [ARTEMISININ],0.049 µM,0.04 µM,
CC(C)C[C@H](NC(=O)[C@H]1O[C@@H]1C(=O)O)C(=O)NCCCCN=C(N)N [E-64],,,0.017 µM
CCCCOC(=O)[C@H]1c2c(/C=C/C(=O)O[C@H](Cc3ccc(O)c(O)c3)C(=O)O)ccc(O)c2O[C@@H]1c1ccc(O)c(O)c1,,,3.18 µM
O=c1c(O[C@@H]2O[C@H](CO)[C@@H](O)[C@H](O)[C@H]2O)c(-c2ccc(O)c(O)c2)oc2cc(O)cc(O)c12 [ISOQUERCETIN],4.05 µM,5.54 µM,15.7 µM
COC(=O)[C@@H](Cc1ccc(O)c(O)c1)OC(=O)/C=C/c1ccc(O)c2c1[C@H](C(=O)OC)[C@@H](c1ccc(O)c(O)c1)O2 [DIMETHYL LITHOSPERMATE],,,3.77 µM
COc1cc(-c2oc3cc(O)cc(O)c3c(=O)c2O[C@@H]2O[C@H](COC(C)=O)[C@@H](O)[C@H](O)[C@H]2O)cc(OC)c1O,,,68.2 µM
COc1cc(O[C@@H]2O[C@H](CO[C@@H]3OC[C@@H](O)[C@H](O)[C@H]3O)[C@@H](O)[C@H](O)[C@H]2O)c2c(=O)cc(-c3ccc(O)cc3)oc2c1,> 500 µM,> 250 µM,17.1 µM
O=C1c2c(O)cc(O)cc2O[C@H](c2ccc(O)c(O)c2)[C@H]1O [TAXIFOLIN],55 µM,48.2 µM,56.9 µM
C[C@@H]1O[C@@H](O[C@H]2[C@H](O)[C@@H](COC(=O)/C=C/c3ccc(O)c(O)c3)O[C@H]3OC[C@H](c4ccc(O)c(O)c4)O[C@@H]32)[C@H](O)[C@H](O)[C@H]1O [ISOCRENATOSIDE],93.1 µM,> 50 µM,53.1 µM
CCOC(=O)c1c(O)cc(O)c2c1OC(c1ccc(O)cc1)CC2 (configuration not stated),86.8 µM,60.3 µM,9.12 µM
